Experimental data reported in paper PMC9993459, “A novel selective spleen tyrosine kinase inhibitor SKI-O-703 (cevidoplenib) ameliorates lupus nephritis and serum-induced arthritis in murine models” (Clinical and Experimental Immunology, 2022).
pIC50: −log10 of the molar value.

Experiments:
[1] = molecular target: Syk (Homo sapiens, UniProt P43405); experiment: Kinase assay (LANCE Ultra TR-FRET), Syk; type: biochemical
Procedure: (§1) Kinase assays were conducted in 384-well plates using LANCE ultra 66 time-resolved fluorescence resonance energy transfer (TR-FRET) methods, according to the manufacturer’s instructions (Perkin-Elmer). In brief, each kinase was pre-incubated with a serially diluted compound for 30 min, incubated with ULight poly-GT peptide substrate and ATP for up to 1 h. Thirty minutes after adding Eu-labeled anti-phosphopeptides Ab diluted in LANCE Detection Buffer, LANCE signals were measured with an EnVision multilabel reader (Perkin-Elmer).

[2] = molecular target: Jak3 (Homo sapiens, UniProt P52333); experiment: Kinase assay (LANCE Ultra TR-FRET), Jak3; type: biochemical
Procedure: as §1

[3] = molecular target: FLT3 (Homo sapiens, UniProt P36888); experiment: Kinase assay (LANCE Ultra TR-FRET), FLT3; type: biochemical
Procedure: as §1

[4] = molecular target: AuroraB (Homo sapiens, UniProt Q96GD4); experiment: Kinase assay (LANCE Ultra TR-FRET), AuroraB; type: biochemical
Procedure: as §1

[5] = molecular target: T1, phosphorylated Syk (p-Syk) in Ramos cells (Homo sapiens, UniProt P43405); experiment: p-Syk ELISA in anti-IgM-stimulated Ramos cells (BCR signal); type: cell-based
T1 construct: endogenous in cells; host or cells: Ramos (ATCC), THP-1 (ATCC), human CD14+ monocytes (Lonza)
Procedure: (§2) THP-1 and Ramos cell lines and human CD14^+ monocytes were purchased from the American Type Culture Collection (ATCC) and Lonza, respectively. After treatment with Syk inhibitors for 1 h, THP-1 cells and monocytes were stimulated for 15 min with 100 μg/ml human IgG (Invitrogen), and Ramos cells were stimulated with 2 μg/ml anti-human IgM monoclonal Ab (mAb) (Bathyl). Cells were lysed in RIPA buffer containing 1% NP-40, 1% sodium deoxycholate, 0.1% SDS, and a mixture of protease and phosphatase inhibitors (Thermo Scientific). The lysates were assayed by standard immunoblotting methods and ELISA. Primary Abs used for immunoblotting were anti-phospho-Syk ([…]), anti-phospho-Vav (Y174), anti-phospho-PLCγ1 (Y1217) and anti-phospho-BLNK (Y96) Abs (all from Cell Signaling). ELISAs to detect phospho-Syk (Y525/526) were performed according to the manufacturer’s protocol (Cell Signaling).
Ramos cells (A), human primary monocytes (B), and THP cells (C) were pretreated with inhibitors at the indicated concentrations and stimulated with anti-human IgM (A) and human IgG (B and C). […] The relative intensities of protein phosphorylation levels were quantitated with reference to each lane of β-actin control bands. (D) Ramos cells, human primary monocytes, and THP cells were treated as in A–C for 24 h and levels of phosphorylated Syk (p-Syk) were measured by ELISA.

[6] = system: Syk phosphorylation (Y525/526), BLNK, PLCγ1, Vav1; experiment: Immunoblotting of phosphorylated Syk and downstream molecules in Ramos cells, human primary monocytes and THP-1 cells; type: cell-based; conditions: all three cell lines, dose-dependent, more potent than R406
Procedure: as §2
Figure 1: in vitro inhibitory effects of SKI-O-592 and -703 on Syk in B cells and monocytes. […] The relative intensities of protein phosphorylation levels were quantitated with reference to each lane of β-actin control bands. (D) Ramos cells, human primary monocytes, and THP cells were treated as in A–C for 24 h and levels of phosphorylated Syk (p-Syk) were measured by ELISA. […] A representative FACS profile and data on the dose-response of mean fluorescence intensity (MFI) are shown. […]

[7] = system: mouse primary B cells; experiment: CP670-dilution proliferation assay, BCR crosslinking (anti-IgM) stimulated B cells; type: cell-based; conditions: 0.1–5 μM, CP670 dilution, 72 h
Procedure: Splenic CD19^+ B cells from C57BL/6 mice were sorted by MACS (Milteny Biotec), stained with 3 μM cell proliferation dye eFluor 670 (CP670; eBioscience), and cultured for 72 h in the presence of either 10 μg/ml LPS (Sigma Aldrich) or 5 μg/ml anti-mouse IgM (Jackson Immuno Research Laboratories), 10 μg/ml anti-CD40 mAb (Biolegend) and 10 ng/ml IL-4 (Peprotech), and assayed by FACS. To detect apoptotic cells, unstimulated cells were cultured for 24 h, stained with Annexin V and 7-aminoactinomycin D (7-AAD), and assayed by FACS.
Figure 2: in vitro effects of SKI-O -703 on the proliferation, survival, and differentiation of B cells. Mouse primary B cells were labeled with CP670, and stimulated with either anti-IgM mAb, CD40L and IL-4 (A) or LPS (B) for 72 h in the presence or absence of SKI-O-703 and tofacitinib at the indicated concentrations; they were then assayed by FACS. (C and D) Mouse primary B cells were cultured as in A and B for 24 h, stained with Annexin V and 7-AAD, and assayed by FACS. Representative FACS profiles and graphs displaying mean Annexin V-positivity are shown. (E) Human primary B cells were stimulated with CpG ODN plus IL-2 (to detect IgM and IgG) or CpG ODN 2006 plus IFN-α (to detect IL-6) in the presence or absence of inhibitors. The culture supernatants were assayed by ELISA. Graphs are expressed as % positivity relative to the controls (without inhibitor). […]

Chain of FLT3 (P36888 27-993, species assumed): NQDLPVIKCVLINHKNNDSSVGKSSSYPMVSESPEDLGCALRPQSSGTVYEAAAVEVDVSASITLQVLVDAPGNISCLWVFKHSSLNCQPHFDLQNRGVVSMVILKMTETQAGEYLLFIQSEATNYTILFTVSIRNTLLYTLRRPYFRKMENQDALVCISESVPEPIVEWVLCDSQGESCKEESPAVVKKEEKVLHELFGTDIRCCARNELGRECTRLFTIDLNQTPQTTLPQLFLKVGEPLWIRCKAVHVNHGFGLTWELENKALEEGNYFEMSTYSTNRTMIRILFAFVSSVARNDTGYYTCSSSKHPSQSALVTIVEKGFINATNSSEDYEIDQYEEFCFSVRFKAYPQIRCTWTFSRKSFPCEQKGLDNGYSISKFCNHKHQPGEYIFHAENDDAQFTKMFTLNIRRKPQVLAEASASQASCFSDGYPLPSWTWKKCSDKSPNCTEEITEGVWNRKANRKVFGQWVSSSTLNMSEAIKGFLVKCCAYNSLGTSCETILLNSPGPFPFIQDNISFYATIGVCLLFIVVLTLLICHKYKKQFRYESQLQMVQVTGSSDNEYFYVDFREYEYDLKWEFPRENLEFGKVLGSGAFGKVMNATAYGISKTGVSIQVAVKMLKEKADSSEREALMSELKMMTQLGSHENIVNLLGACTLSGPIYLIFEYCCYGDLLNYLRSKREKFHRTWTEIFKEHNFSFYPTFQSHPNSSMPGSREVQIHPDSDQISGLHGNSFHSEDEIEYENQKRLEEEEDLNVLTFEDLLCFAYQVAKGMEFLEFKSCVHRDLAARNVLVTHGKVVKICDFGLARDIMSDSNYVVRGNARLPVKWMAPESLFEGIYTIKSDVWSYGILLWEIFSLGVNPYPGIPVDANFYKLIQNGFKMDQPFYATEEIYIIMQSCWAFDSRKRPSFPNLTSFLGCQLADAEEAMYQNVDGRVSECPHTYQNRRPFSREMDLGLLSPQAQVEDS
Chain of AuroraB (Q96GD4 whole entry): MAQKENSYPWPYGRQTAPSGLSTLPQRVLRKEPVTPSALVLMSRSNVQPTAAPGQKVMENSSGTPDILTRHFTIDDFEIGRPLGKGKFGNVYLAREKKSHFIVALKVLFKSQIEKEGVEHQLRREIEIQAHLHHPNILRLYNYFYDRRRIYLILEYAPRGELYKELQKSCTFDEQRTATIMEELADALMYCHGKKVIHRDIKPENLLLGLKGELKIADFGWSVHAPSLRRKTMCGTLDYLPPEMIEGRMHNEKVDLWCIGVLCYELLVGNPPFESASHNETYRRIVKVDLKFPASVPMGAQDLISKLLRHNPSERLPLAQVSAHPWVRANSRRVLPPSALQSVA
Chain of Jak3 (P52333 whole entry, species assumed): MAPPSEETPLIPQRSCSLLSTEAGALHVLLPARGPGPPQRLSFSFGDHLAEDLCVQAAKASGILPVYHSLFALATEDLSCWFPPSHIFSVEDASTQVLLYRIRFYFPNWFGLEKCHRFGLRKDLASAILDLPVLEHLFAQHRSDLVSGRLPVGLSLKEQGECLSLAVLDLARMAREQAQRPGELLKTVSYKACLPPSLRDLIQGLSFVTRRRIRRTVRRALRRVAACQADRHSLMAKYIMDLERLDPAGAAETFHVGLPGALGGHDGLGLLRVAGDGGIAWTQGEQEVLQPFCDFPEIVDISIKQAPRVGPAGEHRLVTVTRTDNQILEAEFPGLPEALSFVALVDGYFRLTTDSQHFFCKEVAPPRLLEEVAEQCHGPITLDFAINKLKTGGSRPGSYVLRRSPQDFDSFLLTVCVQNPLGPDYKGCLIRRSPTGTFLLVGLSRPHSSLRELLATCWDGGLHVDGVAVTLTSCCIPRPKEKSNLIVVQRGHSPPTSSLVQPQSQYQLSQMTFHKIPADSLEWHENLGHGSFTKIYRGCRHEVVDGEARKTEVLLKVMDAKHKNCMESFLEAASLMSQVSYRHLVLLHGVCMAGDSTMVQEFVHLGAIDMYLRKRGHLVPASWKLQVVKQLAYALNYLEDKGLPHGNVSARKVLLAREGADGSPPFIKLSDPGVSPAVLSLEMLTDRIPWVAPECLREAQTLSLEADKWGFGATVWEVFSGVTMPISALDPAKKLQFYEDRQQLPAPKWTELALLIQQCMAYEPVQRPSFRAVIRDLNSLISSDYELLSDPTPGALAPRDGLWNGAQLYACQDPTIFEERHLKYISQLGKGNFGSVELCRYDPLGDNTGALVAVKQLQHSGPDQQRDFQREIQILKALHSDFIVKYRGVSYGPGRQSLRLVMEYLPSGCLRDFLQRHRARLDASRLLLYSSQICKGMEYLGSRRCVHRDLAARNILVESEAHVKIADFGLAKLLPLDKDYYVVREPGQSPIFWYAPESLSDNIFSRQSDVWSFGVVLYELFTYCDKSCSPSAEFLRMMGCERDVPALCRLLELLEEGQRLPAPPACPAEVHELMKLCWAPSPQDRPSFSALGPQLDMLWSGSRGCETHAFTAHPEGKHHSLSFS

With `Cc1nn(-c2ccnc(Nc3ccc4c(c3)c(C(=O)C3CC3)cn4C)n2)cc1CN1C[C@H](O)CO1` [SKI-O-592] the “Ratio to Syk (Syk)” value ([1]; IC50 ratio to Syk) was 1.0, the “IC50 against all other kinases tested relative to Syk” value ([1]; fold higher than against Syk) was 67- to 2753 fold and the pIC50 ([1]; kinase activity, TR-FRET) was 8.21. For the same compound, the “Potency as Syk kinase inhibitor relative to R406” value ([1]; more potent than R406) was “approximately 9 fold”, the “Ratio to Syk (Jak3)” value ([2]; IC50 ratio to Syk) was 943 and the pIC50 ([2]; kinase activity, TR-FRET) was 5.24. For the same compound, the “Ratio to Syk (FLT3)” value ([3]; IC50 ratio to Syk) was 289, the pIC50 ([3]; kinase activity, TR-FRET) was 5.75 and the “Ratio to Syk (AuroraB)” value ([4]; IC50 ratio to Syk) was greater than 1623. The pIC50 ([4]; kinase activity, TR-FRET) was less than 5.00, the pIC50 [5] was 6.55 and the “Phosphorylation of Syk Y525/526 and downstream BLNK, PLCγ1, Vav1 (immunoblotting)” value [6] was “inhibited phosphorylation”.

For `CS(=O)(=O)O.CS(=O)(=O)O.Cc1nn(-c2ccnc(Nc3ccc4c(c3)c(C(=O)C3CC3)cn4C)n2)cc1CN1C[C@H](O)CO1` [SKI-O-703, (S)-cyclopropyl(5-((4-(4-((4-hydroxyisoxazolidin-2-yl)methyl)-3-methyl-1H-pyrazol-1-yl)pyrimidin-2-yl)amino)-1-methyl-1H-indol-3-yl)methanone dimesylate], the BCR crosslinking-induced proliferation [7] was “inhibited BCR crosslinking-induced proliferation in a concentration-dependent manner”.
